Results taken from the METLIN SMRT retention time set (Domingo-Almenara et al. 2019).

Assay: gradient 5% acetonitrile 3 min, to 50% in 2 min, to 85% in 15 min, held 3 min, 100 µL/min
Settings: column: Zorbax Extend-C18 2.1 x 50 mm; eluents: water / acetonitrile, 0.1% formic acid
In short: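 Each retention time is based on an adduct peak selected computationally and verified by manual inspection. Measurements used HPLC–quadrupole time-of-flight mass spectrometry in positive and negative ionization mode on mixtures of ~100 pure standards. Chromatography ran on a Zorbax Extend-C18 column (2.1 × 50 mm, 1.8 μm) at 100 μL/min with water and acetonitrile, each containing 0.1% formic acid, and dead and dwell volumes of 40 μL and 900 μL.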

Row | Compound | RP-LC retention time [s]
1 | Cc1ccc2c(C(=O)N3CCN(Cc4ccccc4)CC3)cc(NC(=O)C(C)C)cc2n1 | 571
2 | Cc1c(Cl)cccc1NC(=O)N1CCN(CCn2c(C(F)(F)F)nc3cccnc32)CC1 | 666
3 | Cc1cccc(C(=O)N2CCC3(C2)C(=O)N(C)c2ccccc23)c1 (stereo not drawn) | 794
4 | O=C1NCCCCCCN(C(=O)c2cc(CN3CCOCC3)on2)[C@H]2CCCC[C@@H]12 | 621
5 | CCCn1c(-c2cccc(C(=O)NCc3ccco3)c2)nc2cccnc21 | 742
6 | CCC1Oc2ccc(S(=O)(=O)N3CCC(C(=O)NC4CCCCCCC4)CC3)cc2NC1=O (stereo not drawn) | 977
7 | CCS(=O)(=O)N1CC(=O)N(c2ccc(Cl)cc2C)C(C)(C(=O)NC2CCCCC2)C1 (stereo not drawn) | 946
8 | CC1=C(c2ccc(Cl)cc2)S(=O)(=O)N=C1N1CCCN(C(=O)NCC(C)C)CC1 | 845
9 | Cc1ccc(NS(=O)(=O)c2cc3n(c2)CCCN(C)C3=O)cc1C | 720
10 | CC(C)n1c(=O)sc2cc(S(=O)(=O)N3CCC(C(=O)N4CCN(C)CC4)CC3)ccc21 | 628
11 | O=C(NCCS(=O)(=O)N1CCc2ccccc2C1)c1cc(=O)c2ccccc2o1 | 733
12 | O=C(CN1CCN(C(=O)Nc2ccc(Br)cc2)CC1=O)N1CCCCC1 | 701
13 | Cc1ccc(Cl)c(NC(=O)C2CCc3nc(N4CCOCC4)ncc3C2)c1 (stereo not drawn) | 865
14 | Cc1ccc(F)cc1S(=O)(=O)N1CCC(C2CCNC2)CC1 (stereo not drawn) | 651
15 | CCC(CC)NCCOC(=O)c1ccc([N+](=O)[O-])cc1 | 705
16 | COCc1nc2cccnc2n1C1CCN(C(=O)Nc2cc(OC)cc(OC)c2)CC1 | 696
17 | Cc1nc(CCNC(=O)C2CCN(S(=O)(=O)c3ccc(F)c(F)c3)CC2)cs1 | 724
18 | O=c1c2ccccc2n(Cc2nc(-c3ccc(Br)cc3)no2)c(=O)n1CC1CCCO1 (stereo not drawn) | 1120
19 | CN1C(=O)c2cc(C(=O)NCCc3ccc(Cl)cc3)nn2CC1(C)C(=O)NCc1ccccc1 (stereo not drawn) | 823
20 | CCCN1CCN(CCNC(=O)CCc2cc3ccc(C)cc3[nH]c2=O)CC1 | 571
21 | Cc1noc(C)c1CC(=O)N1CCc2nn(CC3CC3)c(=O)n2CC1 | 626
22 | O=C(Nc1cccc(OCc2nnc(-c3ccccc3)o2)c1)c1ccoc1 | 868
23 | Cc1ccc(F)cc1S(=O)(=O)N1CCN(c2cnn3c(C)nnc3c2)CC1 | 616
